Measurements from patent publication US20070146686A1, “Non-invasive method to monitor microcirculation” (priority 2004, published 2007).

Test system: skin
Conditions: topical application on the skin; images at 0.5, 2, 5, 10 minutes following application; listed as methyl nicotineate amide
Excerpt: Another way of administering the agent is by topical application on the skin. […] This agent is frequently used in skin testing for assessing the sensitivity of the skin.
In this example a modern digital camera technology is utilized, exemplified by Canon IXUS V3, Canon Svenska AB, Solna, Sweden. […] In this approach a flash of white light—or alternatively continuous light—(A, FIG. 4) illuminates the skin (B, FIG. 4) under study after having been linearly polarized by a polarizer (C, FIG. 4) positioned in front of the flash lamp—or a lamp delivering continuous light—(D, FIG. 4). In the skin surface (E, FIG. 4), a fraction of the polarized light is directly reflected towards the camera aperture with essentially no change in polarization. […]
At least two of the normalized data matrixes representing the different colors are then further processed to form an output data matrix (L, FIG. 4), where each value corresponds to the amount of vasodilatation in the actual source point in tissue. In this example, the algorithm generates an output data matrix of which each element is calculated by subtracting the green value from the red value and divides the difference by the sum of the red and the green value of each element of the normalized original data matrixes.

In the case of methyl nicotinate amide, the “local vasodilatation in skin” value is reported as “Vasodilatation”.
